In patent US20200239530A1, “COMPOUNDS AND METHODS OF MODULATING PROTEIN DEGRADATION” (Vividion Therapeutics, Inc., priority 2017, published 2020):

What was measured:
[1] = target: T1, SEC63 Translocation protein SEC63 homolog (Homo sapiens, UniProt Q9UGP8); test: Cysteine liganding, probe competition; assay type: binding
T1 construct: Cells were resuspended in cold PBS on ice and sonicated with a probe sonicator to achieve lysis; endogenous in cells
T1 sequence (Q9UGP8 1-760): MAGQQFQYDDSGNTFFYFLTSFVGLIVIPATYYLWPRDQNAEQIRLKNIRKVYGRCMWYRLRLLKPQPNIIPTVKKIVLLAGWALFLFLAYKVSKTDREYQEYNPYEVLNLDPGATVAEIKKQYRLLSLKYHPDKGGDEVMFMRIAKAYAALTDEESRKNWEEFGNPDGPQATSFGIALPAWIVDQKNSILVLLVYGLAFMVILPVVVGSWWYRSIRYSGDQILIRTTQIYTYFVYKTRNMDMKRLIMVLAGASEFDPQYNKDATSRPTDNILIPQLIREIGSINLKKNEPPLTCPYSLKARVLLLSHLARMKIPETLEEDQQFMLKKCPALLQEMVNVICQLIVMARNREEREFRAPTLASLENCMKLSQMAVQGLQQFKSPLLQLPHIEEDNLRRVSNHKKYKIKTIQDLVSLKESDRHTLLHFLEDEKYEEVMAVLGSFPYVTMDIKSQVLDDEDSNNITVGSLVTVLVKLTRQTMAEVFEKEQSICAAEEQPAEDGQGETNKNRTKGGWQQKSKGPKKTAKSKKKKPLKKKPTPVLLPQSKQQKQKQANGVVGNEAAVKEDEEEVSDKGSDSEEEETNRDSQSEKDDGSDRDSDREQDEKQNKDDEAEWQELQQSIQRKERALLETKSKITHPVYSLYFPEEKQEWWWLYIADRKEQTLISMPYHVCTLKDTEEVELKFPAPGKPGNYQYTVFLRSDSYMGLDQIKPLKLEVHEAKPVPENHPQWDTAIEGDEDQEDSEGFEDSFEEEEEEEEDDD
In short: (§1)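 Read-out is loss of desthiobiotin iodoacetamide labelling at cysteines, measured on streptavidin-enriched tryptic peptides. Compound preincubation ran 1 hr at 25° C in PBS lysate holding 5 mg/ml proteome before the probe was added.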

[2] = target: T2, TBC1D15 TBC1 domain family member 15 (Homo sapiens, UniProt Q8TC07); test: Cysteine liganding, probe competition; assay type: binding
T2 construct: Cells were resuspended in cold PBS on ice and sonicated with a probe sonicator to achieve lysis; endogenous in cells
T2 sequence (Q8TC07 1-691): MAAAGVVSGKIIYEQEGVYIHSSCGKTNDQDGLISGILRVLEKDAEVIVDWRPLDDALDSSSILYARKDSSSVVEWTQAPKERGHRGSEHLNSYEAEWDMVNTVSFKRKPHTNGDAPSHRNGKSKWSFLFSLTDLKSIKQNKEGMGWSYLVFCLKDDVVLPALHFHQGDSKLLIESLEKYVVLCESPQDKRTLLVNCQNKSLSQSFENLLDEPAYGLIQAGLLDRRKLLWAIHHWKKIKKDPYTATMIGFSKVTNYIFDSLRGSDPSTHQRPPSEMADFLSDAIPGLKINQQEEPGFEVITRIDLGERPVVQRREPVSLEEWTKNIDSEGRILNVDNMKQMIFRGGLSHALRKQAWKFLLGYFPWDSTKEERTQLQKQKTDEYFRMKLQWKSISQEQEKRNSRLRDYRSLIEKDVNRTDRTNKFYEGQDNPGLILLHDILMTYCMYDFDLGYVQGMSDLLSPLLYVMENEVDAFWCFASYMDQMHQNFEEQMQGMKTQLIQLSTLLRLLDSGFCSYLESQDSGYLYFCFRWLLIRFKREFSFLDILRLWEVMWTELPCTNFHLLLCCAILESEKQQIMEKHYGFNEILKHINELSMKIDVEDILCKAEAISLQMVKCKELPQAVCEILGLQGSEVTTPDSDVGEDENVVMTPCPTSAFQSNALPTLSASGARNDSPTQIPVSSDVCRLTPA
In short: as §1

Structure (SMILES)	Liganded ([1]; SEC63 Res# 295, uniprot Q9UGP8)	Liganded ([2]; TBC1D15 Res# 24, uniprot Q8TC07)	100 Max ([1]; uniprot Q9UGP8)	100 ave ([1]; uniprot Q9UGP8)	500 Max ([1]; uniprot Q9UGP8)	500 ave ([1]; uniprot Q9UGP8)	100 Max ([2]; uniprot Q8TC07)	100 ave ([2]; uniprot Q8TC07)	500 Max ([2]; uniprot Q8TC07)	500 ave ([2]; uniprot Q8TC07)
COc1ccc2c(c1)CCCN2C(=O)CCl [KB02]	YES	YES	–	–	–	–	–	–	–	–
O=C(CCl)Nc1cc(C(F)(F)F)cc(C(F)(F)F)c1 [KBO3]	–	–	17.92	4.99	55.53	48.96	7.83	0.88	47.51	47.51
